Values quoted from earlier work in patent US20210235730A1, “FOOD PROTECTION OF FRUIT, CEREAL AND VEGETABLE AND DERIVATIVES” (Hawei Technologies Co., Ltd., priority 2018, published 2021).

Columns and labels:
[1] = test system: coliform microorganisms and arerobic spore-forming microorganisms; details: raw pork, heat-treated and pasteurised
moulds and yeasts = details: raw pork, heat-treated and pasteurised

Compound: N=C(N)N [guanidium]
- effect on coliform and aerobic spore-forming microorganisms [1]: not significantly influenced
- effect on growth of moulds and yeasts (moulds and yeasts): has an effect on the growth
